This is an account of results in article PMC9586926, “An efflux-susceptible antibiotic-adjuvant with systemic efficacy against mouse infections” (Scientific Reports, 2022).

The test system of one test is E. coli Ag100a (ΔacrAB). Put plainly: MIC, broth microdilution, efflux deficient mutant. It counts as cell-based, Escherichia coli. As to conditions: E. coli Ag100a (ΔacrAB) versus Ag100. From the text: (§1) Bacteria used in this study consisted of standard American Type Culture Collection (ATCC; Biological Industries, Beit Haemek, Israel) strains, clinically isolated (CI; Sourasky Medical Center, Tel Aviv, Israel) strains, as well as isogenic mutant strains. Gram-negative bacteria included Acinetobacter baumannii ATCC 19606; Escherichia coli ATCC 25922, 35218, CFT073, CI 14384, 16327, and the isogenic pair Ag100 (wild-type) and its efflux deficient mutant Ag100a (ΔacrAB); Klebsiella pneumoniae CI 1287, 224; Pseudomonas aeruginosa ATCC 27853, CI 1278, 8634; Salmonella enterica serovar Typhimurium ATCC 14028 (wild-type) and its isogenic efflux deficient mutant ΔacrAB. Bacteria were grown in Luria–Bertani broth (LB; 5 g/l NaCl, 5 g/l yeast extract, 10 g/l tryptone; pH = 7.0) at 37 °C with shaking. Over-night cultures were diluted 10-folds into fresh growth-medium and incubated at 37 °C with shaking until reaching mid-logarithmic phase. Then, bacterial concentrations were adjusted using O.D.600 nm measurements, and bacteria were subjected to the experimental procedures listed herein.
MIC was determined according to the broth microdilution method: antimicrobials were subjected to serial twofold dilutions in LB medium, and incubated with 5 × 10^5 CFU/ml of bacteria (final volume of 200 µl) for 18–24 h at 37 °C. […]
For orientation: In broth dilution the organism is exposed to a series of concentrations in liquid medium.

The test system of the next test is A. baumannii. In words: MIC, broth microdilution. It counts as cell-based, Acinetobacter baumannii. As to conditions: broth microdilution in LB, 18–24 h, 37 °C; n = 1 strain.
Description: as §1
MIC was determined according to the broth microdilution method: antimicrobials were subjected to serial twofold dilutions in LB medium, and incubated with 5 × 10^5 CFU/ml of bacteria (final volume of 200 µl) for 18–24 h at 37 °C. Then, O.D.620 nm was measured (BioTek Instruments Synergy HT; Winooski, VT, USA), and the MIC was defined as the lowest antimicrobial concentration for which no increase in O.D.620 nm was evident, compared to the untreated control.

Where a SMILES comes first, the peptide text is derived from it. [ ]: non-standard residue; d: D form. The star is where a group is joined. 12Ado = NCCCCCCCCCCCC(=O)O; Decanoyl = CCCCCCCCCC(=O)*; Dab = NCC[C@H](N)C(=O)O

Consider `CCCCCCCCCC(=O)N[C@@H](CCN)C(=O)N[C@@H](CCN)C(=O)NCCCCCCCCCCCC(=O)N[C@@H](CCN)C(N)=O` [C10BBc12B, decanoyl-bis.diaminobutyrate-aminododecanoyl-diaminobutyrate-amide] (Decanoyl-[Dab][Dab][12Ado][Dab]-NH2), for which, in the test on E. coli Ag100a (ΔacrAB), the “MIC change against efflux deficient mutant versus wild-type” value was “eightfold reduction in MIC value”. Also, the “MIC A. baumannii (n=1)” value with A. baumannii is reported as more than 50 µM.
